Laboratory results as given in patent EP4722228A1, “NEW COMPOUND TARGETING MUSK AND USE THEREOF” (The University of Tokyo, priority 2023, dated 2024).
Bridge positions count the residues as written; N and C are the ends. Square brackets hold non-standard residues; d marks the D form. Peptide text beside a SMILES is read from it. I, II: the chains in the order shown. * marks the point of attachment. Palmitoyl = CCCCCCCCCCCCCCCC(=O)*; PEG3 = NCCOCCOCCOCCC(=O)O; Dap = NC[C@H](N)C(=O)O

What was measured:
human MuSK = target: T1, human MuSK (Homo sapiens, UniProt O15146); experiment: SPR binding activity test to human MuSK (Biacore); settings: Table 5, read-out: Binding activity (KD) (nM) Human
T1 construct: DNA corresponding to the extracellular portion (amino acids 1-493) was amplified by a PCR method; made in house; host or cells: Expi293F cells
T1 sequence (O15146 24-493): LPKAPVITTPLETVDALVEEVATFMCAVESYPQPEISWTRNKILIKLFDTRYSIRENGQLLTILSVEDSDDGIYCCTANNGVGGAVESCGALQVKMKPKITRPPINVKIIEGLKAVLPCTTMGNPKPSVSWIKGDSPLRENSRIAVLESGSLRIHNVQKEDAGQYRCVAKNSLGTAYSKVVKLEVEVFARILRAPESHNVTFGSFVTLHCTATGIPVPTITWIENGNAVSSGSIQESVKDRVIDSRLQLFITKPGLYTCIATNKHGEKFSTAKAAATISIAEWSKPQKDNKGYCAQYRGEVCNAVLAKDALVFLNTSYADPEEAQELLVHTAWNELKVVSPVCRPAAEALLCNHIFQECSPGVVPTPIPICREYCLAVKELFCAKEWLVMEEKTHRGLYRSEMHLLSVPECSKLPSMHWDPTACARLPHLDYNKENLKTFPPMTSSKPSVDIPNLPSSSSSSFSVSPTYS
Method in brief: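 Extracellular domain (aa 1-493) of human MuSK, expressed as an Fc fusion in Expi293F cells, was captured on Protein G or A chips. Analytes were injected as concentration series in phosphate-buffered saline with 0.05% Tween 20, plus 0.1% DMSO for peptides. ka, kd and KD were obtained from 1:1 binding fits.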

mouse MuSK = target: T2, mouse MuSK (Mus musculus, UniProt Q61006); experiment: SPR binding activity test to mouse MuSK (Biacore); settings: Table 5
T2 construct: made in house
T2 sequence (Q61006 22-494 limits assumed): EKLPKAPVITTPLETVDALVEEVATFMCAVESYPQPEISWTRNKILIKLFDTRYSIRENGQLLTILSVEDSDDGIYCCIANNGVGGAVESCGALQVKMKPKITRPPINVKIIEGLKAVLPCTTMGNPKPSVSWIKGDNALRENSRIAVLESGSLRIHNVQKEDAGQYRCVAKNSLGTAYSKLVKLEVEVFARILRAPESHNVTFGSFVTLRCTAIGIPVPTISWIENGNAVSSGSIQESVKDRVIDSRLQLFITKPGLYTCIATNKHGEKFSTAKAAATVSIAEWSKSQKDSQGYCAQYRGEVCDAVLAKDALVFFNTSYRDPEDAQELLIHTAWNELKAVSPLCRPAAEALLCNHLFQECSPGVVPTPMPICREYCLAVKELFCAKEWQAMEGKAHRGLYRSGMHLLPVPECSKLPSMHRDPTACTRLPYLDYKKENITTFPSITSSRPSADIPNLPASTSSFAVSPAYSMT
Experimental: The strength of binding between MuSK and the cyclic peptides was evaluated by quantitatively measuring the binding kinetics (binding affinity (dissociation constant) KD) of the cyclic peptides to MuSK immobilized on a sensor chip via an Fc tag, using surface plasmon resonance (SPR).
According to the standard immobilization protocol provided by the manufacturer, Fc-tagged human/mouse/rat MuSK was immobilized on a Protein G chip or a Protein A chip (Cytiva). A running buffer for the monomer/dimer peptides contained 0.010 M phosphate, 0.14 M NaCl, 0.0027 M KCl, 0.05% (v/v) Tween 20, and 0.1% (v/v) DMSO. A running buffer for the monomer/dimer U-bodies contained 0.010 M phosphate, 0.14 M NaCl, 0.0027 M KCl, and 0.05% (v/v) Tween 20. A series of concentrations of each monomer peptide, dimer peptide, monomer U-body, and dimer U-body was injected as analytes. A 1:1 binding fitting analysis was applied using Biacore evaluation software, and ka, kd, and KD values were determined.
Fc-tagged human MuSK was prepared according to the procedure described in Example 1(1). In addition, Fc-tagged mouse MuSK was used by expressing a nucleotide sequence encoding the Fc-tagged mouse MuSK extracellular domain (SEQ ID NO: 34). […]
The affinity of the U-bodies and their complexes obtained as described above for MuSK of human, rat, and mouse was evaluated (binding activity test). […]

CCCCCCCCCCCCCCCC(=O)NCCCC[C@H](NC(=O)[C@H](CNC(=O)CCOCCOCCOCCNC(=O)CNC(=O)[C@@H]1CSCC(=O)N[C@H](Cc2ccc(O)cc2)C(=O)N2CCC[C@H]2C(=O)N[C@@H](CO)C(=O)N[C@@H](Cc2ccc(O)cc2)C(=O)N[C@@H](Cc2c[nH]cn2)C(=O)N[C@@H]([C@@H](C)O)C(=O)N[C@@H](CC(N)=O)C(=O)N[C@@H](C(C)C)C(=O)N[C@@H](C(C)C)C(=O)N[C@@H](C)C(=O)N[C@@H](CO)C(=O)N[C@@H](CC(C)C)C(=O)N[C@@H](CCCCN)C(=O)N[C@@H](CCCNC(=N)N)C(=O)N1)NC(=O)CCOCCOCCOCCNC(=O)CNC(=O)[C@@H]1CSCC(=O)N[C@H](Cc2ccc(O)cc2)C(=O)N2CCC[C@H]2C(=O)N[C@@H](CO)C(=O)N[C@@H](Cc2ccc(O)cc2)C(=O)N[C@@H](Cc2c[nH]cn2)C(=O)N[C@@H]([C@@H](C)O)C(=O)N[C@@H](CC(N)=O)C(=O)N[C@@H](C(C)C)C(=O)N[C@@H](C(C)C)C(=O)N[C@@H](C)C(=O)N[C@@H](CO)C(=O)N[C@@H](CC(C)C)C(=O)N[C@@H](CCCCN)C(=O)N[C@@H](CCCNC(=N)N)C(=O)N1)C(N)=O [MuSK7-pal] (I: {CH2CO}-[dY]PSYHTNVVASLKRCG[PEG3][Dap]K(Palmitoyl)-NH2 / II: {CH2CO}-[dY]PSYHTNVVASLKRCG[PEG3]; amide I:18-II:C; thioether I:N-I:15, II:N-II:15)
Kd (human MuSK): 0.9 nM
Kd (mouse MuSK): 8.8 nM
